From ChEMBL document CHEMBL5120797, “Principles of Kinase Allosteric Inhibition and Pocket Validation” (J Med Chem, 2022)

Assays:
[1] = target: Hepatocyte growth factor receptor (Homo sapiens, UniProt P08581); assay: Inhibition of c-Met (unknown origin)
[2] = target: Serine/threonine-protein kinase WNK1 (Homo sapiens, UniProt Q9H4A3); assay: Inhibition of human WNK1 (198 to 401 residues) using biotinylated STK3 as substrate incubated for 2 hrs by HTRF assay
[3] = Inhibition of MEK1/2 (unknown origin); design: species or system Homo sapiens
[4] = Binding affinity to MEK1/2 (unknown origin) assessed as dissociation constant; design: species or system Homo sapiens
[5] = target: T1, Tyrosine-protein kinase ITK/TSK (Homo sapiens, UniProt Q08881); assay: Inhibition of human N-terminal His6 tagged ITK (354 to 620 residues) expressed in Sf9 insect cells incubated for 30 mins by time-resolved fluorescence assay
T1 sequence (Q08881 whole entry): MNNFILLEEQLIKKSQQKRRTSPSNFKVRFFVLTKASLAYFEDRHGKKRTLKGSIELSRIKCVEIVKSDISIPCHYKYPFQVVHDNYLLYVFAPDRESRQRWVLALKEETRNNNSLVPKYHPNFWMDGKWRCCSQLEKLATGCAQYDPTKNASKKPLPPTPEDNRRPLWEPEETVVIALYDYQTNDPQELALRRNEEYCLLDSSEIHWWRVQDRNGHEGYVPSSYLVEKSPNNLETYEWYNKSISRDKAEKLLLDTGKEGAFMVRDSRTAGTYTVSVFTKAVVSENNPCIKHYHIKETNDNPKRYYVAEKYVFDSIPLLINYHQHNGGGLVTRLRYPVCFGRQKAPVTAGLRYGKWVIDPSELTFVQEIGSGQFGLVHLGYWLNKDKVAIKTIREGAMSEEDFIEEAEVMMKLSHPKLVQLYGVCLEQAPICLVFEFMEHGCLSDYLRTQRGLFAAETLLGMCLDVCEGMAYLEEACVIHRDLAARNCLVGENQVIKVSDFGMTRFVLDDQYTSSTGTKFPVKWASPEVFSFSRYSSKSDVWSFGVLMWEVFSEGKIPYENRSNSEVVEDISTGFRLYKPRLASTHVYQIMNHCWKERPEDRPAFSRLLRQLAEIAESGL

Serine/threonine-protein kinase WNK1, sequence (Q9H4A3 whole entry, the tested form may be a part): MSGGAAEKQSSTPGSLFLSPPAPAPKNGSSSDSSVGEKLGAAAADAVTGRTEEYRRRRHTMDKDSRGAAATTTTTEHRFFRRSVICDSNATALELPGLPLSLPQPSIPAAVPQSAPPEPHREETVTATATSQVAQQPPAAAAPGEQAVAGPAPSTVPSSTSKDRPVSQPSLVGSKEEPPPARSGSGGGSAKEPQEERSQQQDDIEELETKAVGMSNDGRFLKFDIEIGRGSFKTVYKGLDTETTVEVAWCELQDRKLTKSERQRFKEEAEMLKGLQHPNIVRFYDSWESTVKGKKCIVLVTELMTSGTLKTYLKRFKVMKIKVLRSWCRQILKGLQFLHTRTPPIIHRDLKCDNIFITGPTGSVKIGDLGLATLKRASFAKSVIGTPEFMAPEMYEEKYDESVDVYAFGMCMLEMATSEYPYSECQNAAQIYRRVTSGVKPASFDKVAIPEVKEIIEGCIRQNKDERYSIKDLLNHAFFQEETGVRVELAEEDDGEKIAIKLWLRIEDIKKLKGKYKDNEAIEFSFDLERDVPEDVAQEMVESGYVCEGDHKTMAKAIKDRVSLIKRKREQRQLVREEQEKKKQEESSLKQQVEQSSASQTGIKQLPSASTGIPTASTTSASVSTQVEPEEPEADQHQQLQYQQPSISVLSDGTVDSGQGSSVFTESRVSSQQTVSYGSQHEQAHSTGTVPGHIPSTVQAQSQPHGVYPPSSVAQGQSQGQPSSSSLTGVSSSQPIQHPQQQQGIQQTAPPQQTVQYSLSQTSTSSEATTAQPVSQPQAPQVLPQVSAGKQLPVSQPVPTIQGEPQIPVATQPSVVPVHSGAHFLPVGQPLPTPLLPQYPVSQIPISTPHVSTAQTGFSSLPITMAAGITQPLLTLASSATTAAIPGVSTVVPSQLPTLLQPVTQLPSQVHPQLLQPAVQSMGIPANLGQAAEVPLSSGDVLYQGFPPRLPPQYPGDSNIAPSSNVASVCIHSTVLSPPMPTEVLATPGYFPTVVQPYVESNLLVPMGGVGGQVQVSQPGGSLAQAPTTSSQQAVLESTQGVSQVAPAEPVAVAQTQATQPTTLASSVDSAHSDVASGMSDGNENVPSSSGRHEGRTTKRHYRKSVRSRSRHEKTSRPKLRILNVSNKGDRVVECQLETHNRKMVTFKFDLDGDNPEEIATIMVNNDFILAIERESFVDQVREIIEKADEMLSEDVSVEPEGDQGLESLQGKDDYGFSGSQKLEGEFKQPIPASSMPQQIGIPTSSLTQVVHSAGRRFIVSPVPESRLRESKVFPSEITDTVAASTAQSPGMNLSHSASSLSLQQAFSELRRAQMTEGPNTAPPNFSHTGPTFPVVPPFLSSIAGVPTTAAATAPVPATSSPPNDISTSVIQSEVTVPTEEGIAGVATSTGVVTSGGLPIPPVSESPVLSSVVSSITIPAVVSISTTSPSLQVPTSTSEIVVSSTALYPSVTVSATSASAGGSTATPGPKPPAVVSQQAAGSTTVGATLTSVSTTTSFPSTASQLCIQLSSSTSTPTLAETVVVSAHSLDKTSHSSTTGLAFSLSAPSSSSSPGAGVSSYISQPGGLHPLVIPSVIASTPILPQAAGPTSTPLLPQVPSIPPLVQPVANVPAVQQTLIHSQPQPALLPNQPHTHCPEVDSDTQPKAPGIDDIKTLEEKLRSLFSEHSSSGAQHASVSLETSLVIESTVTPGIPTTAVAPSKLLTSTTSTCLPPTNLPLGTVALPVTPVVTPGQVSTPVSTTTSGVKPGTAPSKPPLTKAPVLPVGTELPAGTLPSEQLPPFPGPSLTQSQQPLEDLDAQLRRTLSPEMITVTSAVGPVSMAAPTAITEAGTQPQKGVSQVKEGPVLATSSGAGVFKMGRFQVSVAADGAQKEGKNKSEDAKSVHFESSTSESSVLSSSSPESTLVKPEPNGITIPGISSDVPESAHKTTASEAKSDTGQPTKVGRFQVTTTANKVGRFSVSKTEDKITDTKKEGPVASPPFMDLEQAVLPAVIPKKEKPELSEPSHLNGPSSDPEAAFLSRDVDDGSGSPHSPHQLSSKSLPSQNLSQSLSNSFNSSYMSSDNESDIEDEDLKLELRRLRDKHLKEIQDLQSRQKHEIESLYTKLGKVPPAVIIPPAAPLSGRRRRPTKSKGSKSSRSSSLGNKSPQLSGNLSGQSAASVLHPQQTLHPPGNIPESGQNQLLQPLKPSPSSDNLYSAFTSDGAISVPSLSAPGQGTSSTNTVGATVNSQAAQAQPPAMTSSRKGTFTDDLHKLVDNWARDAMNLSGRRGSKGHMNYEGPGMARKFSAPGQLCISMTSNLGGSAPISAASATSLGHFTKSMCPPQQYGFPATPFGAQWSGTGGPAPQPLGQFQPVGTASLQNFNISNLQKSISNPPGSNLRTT
Hepatocyte growth factor receptor, sequence (P08581 whole entry, the tested form may be a part): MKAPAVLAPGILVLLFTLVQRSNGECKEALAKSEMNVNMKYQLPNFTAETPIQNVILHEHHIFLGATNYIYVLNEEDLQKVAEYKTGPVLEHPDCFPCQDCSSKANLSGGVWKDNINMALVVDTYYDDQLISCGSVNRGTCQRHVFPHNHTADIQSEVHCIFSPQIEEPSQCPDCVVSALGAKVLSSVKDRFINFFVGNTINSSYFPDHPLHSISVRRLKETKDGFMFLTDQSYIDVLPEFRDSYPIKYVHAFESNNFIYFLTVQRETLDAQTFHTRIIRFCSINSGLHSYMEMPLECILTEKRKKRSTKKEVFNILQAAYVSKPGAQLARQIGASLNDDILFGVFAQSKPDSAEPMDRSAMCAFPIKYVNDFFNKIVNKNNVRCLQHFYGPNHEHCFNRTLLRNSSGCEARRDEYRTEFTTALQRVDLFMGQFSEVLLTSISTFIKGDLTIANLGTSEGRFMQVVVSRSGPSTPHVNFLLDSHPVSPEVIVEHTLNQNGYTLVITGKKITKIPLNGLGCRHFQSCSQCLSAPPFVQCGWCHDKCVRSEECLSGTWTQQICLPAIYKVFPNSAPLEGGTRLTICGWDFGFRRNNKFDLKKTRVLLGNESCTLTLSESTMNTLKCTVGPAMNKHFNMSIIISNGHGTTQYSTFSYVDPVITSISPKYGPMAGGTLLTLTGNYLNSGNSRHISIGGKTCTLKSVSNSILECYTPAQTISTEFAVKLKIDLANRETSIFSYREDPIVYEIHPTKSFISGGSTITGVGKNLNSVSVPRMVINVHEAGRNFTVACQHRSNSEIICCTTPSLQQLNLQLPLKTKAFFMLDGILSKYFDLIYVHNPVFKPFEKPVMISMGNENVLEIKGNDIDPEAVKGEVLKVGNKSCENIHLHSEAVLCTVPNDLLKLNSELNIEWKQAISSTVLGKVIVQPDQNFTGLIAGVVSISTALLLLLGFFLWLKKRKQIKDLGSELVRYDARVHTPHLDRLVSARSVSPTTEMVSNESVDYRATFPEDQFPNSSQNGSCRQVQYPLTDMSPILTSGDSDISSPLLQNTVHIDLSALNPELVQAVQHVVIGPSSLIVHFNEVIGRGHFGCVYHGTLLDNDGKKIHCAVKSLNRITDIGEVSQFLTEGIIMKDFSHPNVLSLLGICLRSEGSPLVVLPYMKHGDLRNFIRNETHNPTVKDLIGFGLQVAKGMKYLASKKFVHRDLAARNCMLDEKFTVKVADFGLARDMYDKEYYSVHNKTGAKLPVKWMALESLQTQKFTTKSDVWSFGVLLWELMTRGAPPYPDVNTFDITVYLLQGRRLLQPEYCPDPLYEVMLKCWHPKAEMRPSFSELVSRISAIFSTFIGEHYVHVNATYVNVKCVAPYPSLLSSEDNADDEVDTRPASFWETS

O=C1NC(=O)[C@@H](c2cn3c4c(cccc24)CCC3)[C@@H]1c1c[nH]c2ccccc12 [TIVANTINIB]
IC50 [1]: 360 nM

CNc1nc(-c2ccc3c(c2)CCN3C(=O)c2ccccc2OCc2ccc(Cl)cc2)cs1
IC50 [2]: 120 nM

CC(=O)Nc1cccc(-n2c(=O)n(C3CC3)c(=O)c3c(Nc4ccc(I)cc4F)n(C)c(=O)c(C)c32)c1 [TRAMETINIB]
IC50 [3]: 2 nM | Kd [4]: 3 nM

Cn1cnc2c(F)c(Nc3ccc(Br)cc3Cl)c(C(=O)NOCCO)cc21 [SELUMETINIB]
Kd [4]: 14 nM

CC(C)Oc1ccc2cccc(-n3cc(NC(N)=O)c(C(N)=O)n3)c2c1
IC50 [5]: 30 nM
